What was measured:
[1] = target: EGFR (UniProt P00533)
[2] = target: EGFR (Balb/c mice) (UniProt P00533); conditions: balb/c3t3
[3] = target: EGFR (Balb/c mice) (UniProt P00533); conditions: balb/mk cells
[4] = target: EGFR (human) (UniProt P00533); conditions: a431
EGFR (human), sequence (P00533 whole entry, looked up): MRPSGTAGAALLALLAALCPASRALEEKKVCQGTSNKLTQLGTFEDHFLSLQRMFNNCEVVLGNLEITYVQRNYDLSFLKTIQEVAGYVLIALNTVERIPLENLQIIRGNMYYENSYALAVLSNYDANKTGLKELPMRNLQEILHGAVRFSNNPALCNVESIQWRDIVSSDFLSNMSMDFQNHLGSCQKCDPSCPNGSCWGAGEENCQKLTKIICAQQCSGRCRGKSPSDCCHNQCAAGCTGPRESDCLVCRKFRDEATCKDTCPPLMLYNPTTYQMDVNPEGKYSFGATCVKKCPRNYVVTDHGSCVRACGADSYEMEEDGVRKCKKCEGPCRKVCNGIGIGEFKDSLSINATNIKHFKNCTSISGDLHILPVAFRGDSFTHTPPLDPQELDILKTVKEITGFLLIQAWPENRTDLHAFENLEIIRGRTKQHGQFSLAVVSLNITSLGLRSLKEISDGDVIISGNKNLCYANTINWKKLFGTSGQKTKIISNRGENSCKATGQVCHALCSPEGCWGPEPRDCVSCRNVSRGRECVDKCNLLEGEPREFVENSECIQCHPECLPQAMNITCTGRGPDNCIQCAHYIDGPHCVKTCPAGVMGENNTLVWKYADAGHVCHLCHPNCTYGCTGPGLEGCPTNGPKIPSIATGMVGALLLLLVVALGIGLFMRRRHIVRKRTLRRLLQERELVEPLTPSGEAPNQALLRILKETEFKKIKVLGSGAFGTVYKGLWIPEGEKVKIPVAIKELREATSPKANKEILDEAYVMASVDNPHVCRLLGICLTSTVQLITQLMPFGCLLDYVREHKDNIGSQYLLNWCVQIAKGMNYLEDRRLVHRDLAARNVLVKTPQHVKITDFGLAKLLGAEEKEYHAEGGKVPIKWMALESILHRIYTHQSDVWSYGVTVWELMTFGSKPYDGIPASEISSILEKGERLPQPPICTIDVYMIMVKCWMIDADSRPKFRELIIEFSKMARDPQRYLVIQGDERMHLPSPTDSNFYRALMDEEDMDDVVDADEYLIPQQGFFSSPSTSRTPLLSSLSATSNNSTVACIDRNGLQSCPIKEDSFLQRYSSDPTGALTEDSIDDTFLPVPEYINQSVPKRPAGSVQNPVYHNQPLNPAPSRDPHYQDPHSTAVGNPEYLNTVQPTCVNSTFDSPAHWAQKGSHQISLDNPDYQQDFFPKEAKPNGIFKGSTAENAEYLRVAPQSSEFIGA

EGFR, sequence (P00533 whole entry, looked up): as above

Row | SMILES | IC50 [1] [nM] | IC50 [2] [nM] | IC50 [3] [nM] | IC100 [4]
1 | OCCN(CCO)Cc1cc2c(Nc3cccc(Cl)c3)ncnc2[nH]1 | 0.5 to 1000 | 1 to 100 | 100 to 1000 | –
2 | COc1cc(-c2cc3c(Nc4cccc(Cl)c4)ncnc3[nH]2)ccc1O | 0.5 to 1000 | 1 to 100 | 100 to 1000 | –
3 | COc1ccc(-c2cc3c(N[C@H](C)c4ccccc4)ncnc3[nH]2)cc1 | 0.5 to 1000 | 1 to 100 | 100 to 1000 | –
4 | ON=Cc1cc2c(Nc3cccc(Cl)c3)ncnc2[nH]1 | 0.5 to 1000 | 1 to 100 | 100 to 1000 | –
5 | CCOC(=O)Nc1ccc(-c2cc3c(Nc4cccc(Cl)c4)ncnc3[nH]2)cc1 | 0.5 to 1000 | 1 to 100 | 100 to 1000 | –
6 | CCS(=O)(=O)Nc1ccc(-c2cc3c(Nc4cccc(Cl)c4)ncnc3[nH]2)cc1 | 0.5 to 1000 | 1 to 100 | 100 to 1000 | –
7 | CCN(C=Nc1cccc(-c2cc3c(Nc4cccc(Cl)c4)ncnc3[nH]2)c1)CC | 0.5 to 1000 | 1 to 100 | 100 to 1000 | –
8 | CN1CCN(C(=O)c2cc3c(Nc4cccc(Cl)c4)ncnc3[nH]2)CC1 | 0.5 to 1000 | 1 to 100 | 100 to 1000 | Between 0.001 to 1.000 uM
9 | CC(C)S(=O)(=O)Nc1cccc(-c2cc3c(N[C@H](C)c4ccccc4)ncnc3[nH]2)c1 | 0.5 to 1000 | 1 to 100 | 100 to 1000 | –
10 | CCNC(=O)Nc1cccc(-c2cc3c(N[C@H](C)c4ccccc4)ncnc3[nH]2)c1 | 0.5 to 1000 | 1 to 100 | 100 to 1000 | –
11 | OCc1ccc(-c2cc3c(Nc4cccc(Cl)c4)ncnc3[nH]2)cc1 | 0.5 to 1000 | 1 to 100 | 100 to 1000 | –
12 | CNC(=S)Nc1cccc(-c2cc3c(N[C@H](C)c4ccccc4)ncnc3[nH]2)c1 | 0.5 to 1000 | 1 to 100 | 100 to 1000 | –
13 | CN1CCN(C(=O)c2ccc(-c3cc4c(Nc5cccc(Cl)c5)ncnc4[nH]3)cc2)CC1 | 0.5 to 1000 | 1 to 100 | 100 to 1000 | –
14 | COc1ccc(-c2csc(-c3cc4c(Nc5cccc(Cl)c5)ncnc4[nH]3)n2)cc1 | 0.5 to 1000 | 1 to 100 | 100 to 1000 | –
15 | O=C(Nc1ccc(-c2cc3c(Nc4cccc(Cl)c4)ncnc3[nH]2)cc1)c1cccs1 | 0.5 to 1000 | 1 to 100 | 100 to 1000 | –
16 | COc1cc(-c2cc3c(Nc4ccccc4)ncnc3[nH]2)ccc1O | 0.5 to 1000 | 1 to 100 | 100 to 1000 | –
17 | COc1cc(-c2cc3c(Nc4cccc(C)c4)ncnc3[nH]2)ccc1OCc1ccccc1 | 0.5 to 1000 | 1 to 100 | 100 to 1000 | –
18 | CON=Cc1cc2c(Nc3cccc(Cl)c3)ncnc2[nH]1 | 0.5 to 1000 | 1 to 100 | 100 to 1000 | –

Row | SMILES | IC50 [1] [nM] | IC50 [2] [nM] | IC50 [3] [nM] | IC100 [4]
19 | COc1cc(-c2cc3c(Nc4cccc(Cl)c4)ncnc3[nH]2)ccc1OCc1ccccc1 | 0.5 to 1000 | 1 to 100 | 100 to 1000 | –
20 | CN(C)C=Nc1cccc(-c2cc3c(Nc4cccc(Cl)c4)ncnc3[nH]2)c1 | 0.5 to 1000 | 1 to 100 | 100 to 1000 | –
21 | C[C@@H](Nc1ncnc2[nH]c(-c3cccc(N=CN(C)C)c3)cc12)c1ccccc1 | 0.5 to 1000 | 1 to 100 | 100 to 1000 | –
22 | O=C(Nc1ccc(-c2cc3c(Nc4cccc(Cl)c4)ncnc3[nH]2)cc1)c1ccco1 | 0.5 to 1000 | 1 to 100 | 100 to 1000 | –
23 | O=S(=O)(Nc1ccc(-c2cc3c(Nc4cccc(Cl)c4)ncnc3[nH]2)cc1)c1ccccc1 | 0.5 to 1000 | 1 to 100 | 100 to 1000 | –
24 | Clc1cccc(Nc2ncnc3[nH]c(-c4cccc(N=CN5CCOCC5)c4)cc23)c1 | 0.5 to 1000 | 1 to 100 | 100 to 1000 | –
25 | CC(C)S(=O)(=O)Nc1ccc(-c2cc3c(Nc4cccc(Cl)c4)ncnc3[nH]2)cc1 | 0.5 to 1000 | 1 to 100 | 100 to 1000 | –
26 | C[C@@H](Nc1ncnc2[nH]c(-c3cccc(NS(C)(=O)=O)c3)cc12)c1ccccc1 | 0.5 to 1000 | 1 to 100 | 100 to 1000 | –
27 | Clc1cccc(Nc2ncnc3[nH]c(CN4CCOCC4)cc23)c1 | 0.5 to 1000 | 1 to 100 | 100 to 1000 | –
28 | COC(=O)Nc1ccc(-c2cc3c(Nc4cccc(Cl)c4)ncnc3[nH]2)cc1 | 0.5 to 1000 | 1 to 100 | 100 to 1000 | –
29 | CN(C)C=Nc1ccc(-c2cc3c(Nc4cccc(Cl)c4)ncnc3[nH]2)cc1 | 0.5 to 1000 | 1 to 100 | 100 to 1000 | –
30 | CNC(=S)Nc1ccc(-c2cc3c(N[C@H](C)c4ccccc4)ncnc3[nH]2)cc1 | 0.5 to 1000 | 1 to 100 | 100 to 1000 | –
31 | O=C(Nc1ccccc1)Nc1cccc(-c2cc3c(Nc4cccc(Cl)c4)ncnc3[nH]2)c1 | 0.5 to 1000 | 1 to 100 | 100 to 1000 | –
32 | CC(C)COC(=O)Nc1ccc(-c2cc3c(Nc4cccc(Cl)c4)ncnc3[nH]2)cc1 | 0.5 to 1000 | 1 to 100 | 100 to 1000 | –
33 | O=C(c1ccc(-c2cc3c(Nc4cccc(Cl)c4)ncnc3[nH]2)cc1)N1CCOCC1 | 0.5 to 1000 | 1 to 100 | 100 to 1000 | –
34 | Clc1cccc(Nc2ncnc3[nH]c(-c4ccc(N=CN5CCCCC5)cc4)cc23)c1 | 0.5 to 1000 | 1 to 100 | 100 to 1000 | –
35 | CCNC(=O)Nc1cccc(-c2cc3c(Nc4cccc(Cl)c4)ncnc3[nH]2)c1 | 0.5 to 1000 | 1 to 100 | 100 to 1000 | –
36 | CCS(=O)(=O)Nc1cccc(-c2cc3c(Nc4cccc(Cl)c4)ncnc3[nH]2)c1 | 0.5 to 1000 | 1 to 100 | 100 to 1000 | –

Further lines, results first:

Row | IC50 [1] [nM] | IC50 [2] [nM] | IC50 [3] [nM] | IC100 [4] | SMILES
37 | 0.5 to 1000 | 1 to 100 | 100 to 1000 | – | C[C@@H](Nc1ncnc2[nH]c(-c3ccc(N=CN(C)C)cc3)cc12)c1ccccc1
38 | 0.5 to 1000 | 1 to 100 | 100 to 1000 | – | O=C(c1cc2c(Nc3cccc(Cl)c3)ncnc2[nH]1)N1CCOCC1
39 | 0.5 to 1000 | 1 to 100 | 100 to 1000 | – | Cn1nnc(-c2cc3c(Nc4cccc(Cl)c4)ncnc3[nH]2)n1.Cn1nnnc1-c1cc2c(Nc3cccc(Cl)c3)ncnc2[nH]1
40 | 0.5 to 1000 | 1 to 100 | 100 to 1000 | – | CCc1csc(-c2cc3c(Nc4cccc(Cl)c4)ncnc3[nH]2)n1
41 | 0.5 to 1000 | 1 to 100 | 100 to 1000 | – | CC(C)S(=O)(=O)Nc1ccc(-c2cc3c(N[C@H](C)c4ccccc4)ncnc3[nH]2)cc1
42 | 0.5 to 1000 | 1 to 100 | 100 to 1000 | – | Clc1cccc(Nc2ncnc3[nH]c(-c4ccc(NCc5ccccc5)cc4)cc23)c1
43 | 0.5 to 1000 | 1 to 100 | 100 to 1000 | – | CCN(C=Nc1ccc(-c2cc3c(Nc4cccc(Cl)c4)ncnc3[nH]2)cc1)CC
44 | 0.5 to 1000 | 1 to 100 | 100 to 1000 | – | CC(C)S(=O)(=O)Nc1cccc(-c2cc3c(Nc4cccc(Cl)c4)ncnc3[nH]2)c1
45 | 0.5 to 1000 | 1 to 100 | 100 to 1000 | – | Cc1nc(-c2cc3c(Nc4cccc(Cl)c4)ncnc3[nH]2)sc1C
46 | 0.5 to 1000 | 1 to 100 | 100 to 1000 | – | Clc1cccc(Nc2ncnc3[nH]c(-c4nccs4)cc23)c1
47 | 0.5 to 1000 | 1 to 100 | 100 to 1000 | – | C[C@@H](Nc1ncnc2[nH]c(-c3cccc(NCc4ccccc4)c3)cc12)c1ccccc1
48 | 0.5 to 1000 | 1 to 100 | 100 to 1000 | – | CN1CCN(Cc2cc3c(Nc4cccc(Cl)c4)ncnc3[nH]2)CC1
49 | 0.5 to 1000 | 1 to 100 | 100 to 1000 | – | COc1cc(-c2cc3c(Nc4cccc(C)c4)ncnc3[nH]2)ccc1O
50 | 0.5 to 1000 | 1 to 100 | 100 to 1000 | – | CNC(=S)Nc1cccc(-c2cc3c(Nc4cccc(Cl)c4)ncnc3[nH]2)c1
51 | 0.5 to 1000 | 1 to 100 | 100 to 1000 | – | CCNC(=O)Nc1ccc(-c2cc3c(N[C@H](C)c4ccccc4)ncnc3[nH]2)cc1
52 | 0.5 to 1000 | 1 to 100 | 100 to 1000 | – | CCNC(=O)Nc1ccc(-c2cc3c(Nc4cccc(Cl)c4)ncnc3[nH]2)cc1
53 | 0.5 to 1000 | 1 to 100 | 100 to 1000 | – | CC(C)C(=Nc1ccc(-c2cc3c(Nc4cccc(Cl)c4)ncnc3[nH]2)cc1)N(C)C
54 | 0.5 to 1000 | 1 to 100 | 100 to 1000 | – | CC(C)OC(=O)Nc1ccc(-c2cc3c(Nc4cccc(Cl)c4)ncnc3[nH]2)cc1
55 | 0.5 to 1000 | 1 to 100 | 100 to 1000 | – | Clc1cccc(Nc2ncnc3[nH]c(-c4nnn[nH]4)cc23)c1
56 | 0.5 to 1000 | 1 to 100 | 100 to 1000 | – | CN1CCN(C=Nc2ccc(-c3cc4c(Nc5cccc(Cl)c5)ncnc4[nH]3)cc2)CC1
57 | 0.5 to 1000 | 1 to 100 | 100 to 1000 | – | Clc1cccc(Nc2ncnc3[nH]c(-c4ccc(N=CN5CCOCC5)cc4)cc23)c1
58 | 0.5 to 1000 | 1 to 100 | 100 to 1000 | – | CCNC(=S)Nc1ccc(-c2cc3c(Nc4cccc(Cl)c4)ncnc3[nH]2)cc1
59 | 0.5 to 1000 | 1 to 100 | 100 to 1000 | – | CCS(=O)(=O)Nc1ccc(-c2cc3c(N[C@H](C)c4ccccc4)ncnc3[nH]2)cc1
60 | 0.5 to 1000 | 1 to 100 | 100 to 1000 | – | CS(=O)(=O)Nc1ccc(-c2cc3c(Nc4cccc(Cl)c4)ncnc3[nH]2)cc1
61 | 0.5 to 1000 | 1 to 100 | 100 to 1000 | – | C[C@@H](Nc1ncnc2[nH]c(-c3ccc(NS(C)(=O)=O)cc3)cc12)c1ccccc1
62 | 0.5 to 1000 | 1 to 100 | 100 to 1000 | – | NC(=S)c1cc2c(Nc3cccc(Cl)c3)ncnc2[nH]1
63 | 0.5 to 1000 | 1 to 100 | 100 to 1000 | – | CS(=O)(=O)Nc1cccc(-c2cc3c(Nc4cccc(Cl)c4)ncnc3[nH]2)c1
64 | 0.5 to 1000 | 1 to 100 | 100 to 1000 | – | CCS(=O)(=O)Nc1cccc(-c2cc3c(N[C@H](C)c4ccccc4)ncnc3[nH]2)c1
65 | 0.5 to 1000 | 1 to 100 | 100 to 1000 | – | COc1ccc(CNCc2cc3c(Nc4cccc(Cl)c4)ncnc3[nH]2)cc1
66 | 0.5 to 1000 | 1 to 100 | 100 to 1000 | – | Oc1ccc(CNCc2cc3c(Nc4cccc(Cl)c4)ncnc3[nH]2)cc1

From the Kinase Knowledgebase extract (Sharma et al. 2016)
